Converted amounts (≈) assume the structure as drawn. Blank lines part the entries; values can stand above or below the molecule they belong to.
Tests used:
Test in all cases: ≥ marks a high value that may be exact or a test limit, other limits are often not marked, values filed in µg/mL are converted to µM
[1] = system: Staphylococcus aureus ATCC BAA-1556
[2] = system: Escherichia coli BW25113
[3] = system: Escherichia coli
[4] = system: Bacillus cereus
[5] = system: Staphylococcus aureus NCTC 10788
[6] = system: Candida albicans NCPF 1467
[7] = system: Escherichia coli NCTC 10418
[8] = system: Micrococcus luteus ATCC 4698
[9] = system: Enterococcus faecalis NCTC 12697
[10] = system: Staphylococcus aureus NCTC 12493
[11] = system: Pseudomonas aeruginosa ATCC 27853

Compound: CC[C@H](C)[C@H](NC(=O)[C@@H]1CCCN1C(=O)[C@H](Cc1c[nH]c2ccccc12)NC(=O)[C@H](CCCN=C(N)N)NC(=O)[C@H](Cc1c[nH]c2ccccc12)NC(=O)[C@@H](N)CCCN=C(N)N)C(=O)N[C@@H](CCCN=C(N)N)C(=O)N[C@@H](CCCN=C(N)N)C(=O)N1CCC[C@H]1C(=O)N1CCC[C@H]1C(=O)N[C@H](C(=O)N[C@@H](CCCN=C(N)N)C(=O)N1CCC[C@H]1C(=O)N1CCC[C@H]1C(=O)N[C@@H](Cc1ccccc1)C(=O)N[C@@H](Cc1ccc(O)cc1)C(=O)N1CCC[C@H]1C(=O)O)[C@@H](C)CC [RWRWPIRRPPIRPPFYP]
- MIC [2]: 8 µM (≈ 18.3 µg/mL)

Compound: CC(C)C[C@H](NC(=O)[C@H](CC(C)C)NC(=O)[C@H](CCCCN)NC(=O)[C@H](CCCCN)NC(=O)[C@H](CC(C)C)NC(=O)[C@H](CC(C)C)NC(=O)[C@H](CC(C)C)NC(=O)[C@H](CC(C)C)NC(=O)[C@@H](N)CC(C)C)C(N)=O [LLLLLKKLL]
- MIC [1]: ≥ 100 µM

Compound: CC[C@H](C)[C@H](NC(=O)[C@H](CC(C)C)NC(=O)[C@H](CCCN=C(N)N)NC(=O)[C@H](CCC(=O)O)NC(=O)[C@H](CC(C)C)NC(=O)[C@@H](NC(=O)[C@@H]1CCCN1C(=O)[C@H](CC(C)C)NC(=O)[C@H](C)NC(=O)[C@H](Cc1ccccc1)NC(=O)[C@H](C)NC(=O)[C@H](C)NC(=O)[C@@H](NC(=O)[C@H](CCCCN)NC(=O)CNC(=O)[C@@H](NC(=O)CNC(=O)[C@@H](NC(=O)[C@H](C)NC(=O)[C@H](C)N)[C@@H](C)O)[C@@H](C)O)[C@@H](C)O)C(C)C)C(=O)O [AATGTGKTAAFALPVLERLI]
- MIC [3]: > 128 µM
- MIC [4]: ≥ 128 µM

Compound: CC[C@H](C)[C@H](NC(=O)[C@@H]1CCCN1C(=O)[C@H](CCCN=C(N)N)NC(=O)[C@H](CCCN=C(N)N)NC(=O)[C@H](Cc1c[nH]c2ccccc12)NC(=O)[C@@H](N)CCCN=C(N)N)C(=O)N[C@@H](CCCN=C(N)N)C(=O)N[C@@H](CCCN=C(N)N)C(=O)N1CCC[C@H]1C(=O)N1CCC[C@H]1C(=O)N[C@H](C(=O)N[C@@H](CCCN=C(N)N)C(=O)N1CCC[C@H]1C(=O)N1CCC[C@H]1C(=O)N[C@@H](Cc1c[nH]c2ccccc12)C(=O)N[C@@H](Cc1ccc(O)cc1)C(=O)N1CCC[C@H]1C(=O)O)[C@@H](C)CC [RWRRPIRRPPIRPPWYP]
- MIC [2]: 8 µM (≈ 18.4 µg/mL)

Compound: CC[C@H](C)[C@H](NC(=O)[C@@H]1CCCN1C(=O)[C@H](CCCN=C(N)N)NC(=O)[C@H](CCCN=C(N)N)NC(=O)[C@H](CCCN=C(N)N)NC(=O)[C@H](Cc1c[nH]c2ccccc12)NC(=O)[C@@H]1CCCN1C(=O)[C@H](CCCN=C(N)N)NC(=O)[C@H](CCCN=C(N)N)NC(=O)[C@H](CCCN=C(N)N)NC(=O)[C@@H](N)CCCN=C(N)N)C(=O)N[C@@H](CCCN=C(N)N)C(=O)N1CCC[C@H]1C(=O)N1CCC[C@H]1C(=O)N[C@@H](Cc1ccccc1)C(=O)N[C@@H](Cc1ccc(O)cc1)C(=O)N[C@@H](Cc1c[nH]c2ccccc12)C(=O)O [RRRRPWRRRPIRPPFYW]
- MIC [2]: 8 µM (≈ 19.6 µg/mL)

Compound: CC[C@H](C)[C@H](NC(=O)[C@H](C)NC(=O)CNC(=O)[C@@H](NC(=O)[C@@H](N)Cc1ccccc1)C(C)C)C(=O)N[C@@H](C)C(=O)N[C@@H](C)C(=O)N[C@@H](C)C(=O)N[C@@H](CC(C)C)C(=O)N1CCC[C@H]1C(=O)N[C@@H](Cc1cnc[nH]1)C(=O)N[C@H](C(=O)N[C@H](C(=O)N[C@@H](CO)C(=O)N[C@@H](C)C(=O)N[C@H](C(=O)N[C@@H](CCCCN)C(=O)N[C@@H](CC(N)=O)C(=O)N[C@@H](C)C(=O)N[C@@H](CC(C)C)C(=O)O)[C@@H](C)CC)[C@@H](C)CC)C(C)C [FVGAIAAALPHVISAIKNAL]
- MIC [5]: 16 µM (≈ 31.6 µg/mL)
- MIC [6]: ≥ 120 µM

Compound: CC[C@H](C)[C@H](NC(=O)[C@H](CCCN=C(N)N)NC(=O)[C@@H](N)CCCN=C(N)N)C(=O)N[C@@H](CCCN=C(N)N)C(=O)N[C@@H](Cc1ccccc1)C(=O)N[C@@H](CCCN=C(N)N)C(=O)N1CCC[C@H]1C(=O)N1CCC[C@H]1C(=O)N[C@@H](Cc1ccc(O)cc1)C(=O)N[C@@H](CC(C)C)C(=O)N1CCC[C@H]1C(=O)N[C@@H](CCCN=C(N)N)C(=O)N1CCC[C@H]1C(=O)NCC(=O)N[C@@H](CCCN=C(N)N)C(=O)N[C@@H](CCCN=C(N)N)C(=O)O [RRIRFRPPYLPRPGRR]
- MIC [2]: 4 µM (≈ 8.37 µg/mL)

Compound: CC[C@H](C)[C@H](NC(=O)[C@H](C)NC(=O)[C@H](CCCCN)NC(=O)[C@@H]1CCCN1C(=O)[C@@H](NC(=O)[C@H](CC(C)C)NC(=O)[C@H](CCCCN)NC(=O)[C@H](Cc1ccccc1)NC(=O)[C@H](CC(C)C)NC(=O)[C@@H](N)Cc1ccccc1)[C@@H](C)CC)C(=O)N[C@@H](CCCCN)C(=O)NCC(=O)N[C@@H](CC(C)C)C(=O)N[C@@H](CC(C)C)C(=O)N[C@@H](CCCCN)C(=O)N[C@@H](C)C(=O)N[C@@H](Cc1ccccc1)C(=O)N[C@H](C=O)CCCCN [FLFKLIPKAIKGLLKAFK]
- MIC [5]: 4 µM (≈ 8.24 µg/mL)
- MIC [6]: 4 µM (≈ 8.24 µg/mL)
- MIC [7]: 8 µM (≈ 16.5 µg/mL)

Compound: CC[C@H](C)[C@H](NC(=O)[C@H](CO)NC(=O)[C@H](CCCCN)NC(=O)[C@@H](N)CO)C(=O)N1CCC[C@H]1C(=O)NCC(=O)N[C@@H](CCCN=C(N)N)C(=O)N[C@@H](CO)C(=O)NCC(=O)O [SKSIPGRSG]
- MIC [8]: ≥ 75 µM

Compound: CC(C)C[C@H](NC(=O)[C@H](CC(C)C)NC(=O)[C@H](CC(C)C)NC(=O)[C@H](CC(C)C)NC(=O)[C@H](CC(C)C)NC(=O)[C@H](CC(C)C)NC(=O)[C@H](CCCCN)NC(=O)[C@H](CC(C)C)NC(=O)[C@@H](N)CCCCN)C(N)=O [KLKLLLLLL]
- MIC [1]: ≥ 100 µM

Compound: CC[C@H](C)[C@H](NC(=O)[C@H](Cc1ccccc1)NC(=O)[C@H](CCCN=C(N)N)NC(=O)[C@H](CO)NC(=O)[C@@H](NC(=O)[C@H](C)NC(=O)[C@H](C)NC(=O)[C@H](CCCCN)NC(=O)[C@@H](NC(=O)[C@H](CS)NC(=O)[C@@H](NC(=O)[C@@H]1CCCN1C(=O)[C@H](CO)NC(=O)[C@H](Cc1ccc(O)cc1)NC(=O)[C@@H](N)CC(C)C)[C@@H](C)O)C(C)C)C(C)C)C(=O)NCC(=O)N[C@@H](CCCCN)C(=O)N[C@H](C(=O)N[C@@H](CO)C(=O)N[C@@H](C)C(=O)O)C(C)C [LYSPTCVKAAVSRFIGKVSA]
- MIC [3]: > 122 µM
- MIC [4]: ≥ 122 µM

Compound: CC[C@H](C)[C@H](NC(=O)CNC(=O)CNC(=O)[C@H](C)NC(=O)[C@@H](NC(=O)[C@H](CCCCN)NC(=O)[C@@H]1CCCN1C(=O)[C@@H](NC(=O)[C@H](CCSC)NC(=O)[C@H](CO)NC(=O)[C@H](CC(C)C)NC(=O)[C@@H](N)Cc1ccccc1)[C@@H](C)CC)[C@@H](C)CC)C(=O)N[C@@H](C)C(=O)N[C@@H](CO)C(=O)N[C@@H](CC(C)C)C(=O)N[C@H](C(=O)N[C@@H](CCCCN)C(=O)N[C@@H](CC(N)=O)C(=O)N[C@@H](CC(C)C)C(N)=O)C(C)C [FLSMIPKIAGGIASLVKNL]
- MIC [5]: 4.06 µM (≈ 8 µg/mL)
- MIC [6]: 8.11 µM (≈ 16 µg/mL)
- MIC [7]: ≥ 64.9 µM

More lines, now with the values ahead:

- MIC [1]: ≥ 100 µM
Compound: CC(C)C[C@H](NC(=O)[C@H](Cc1c[nH]c2ccccc12)NC(=O)[C@H](Cc1c[nH]c2ccccc12)NC(=O)[C@H](CC(C)C)NC(=O)[C@H](Cc1c[nH]c2ccccc12)NC(=O)[C@H](Cc1c[nH]c2ccccc12)NC(=O)[C@H](CC(C)C)NC(=O)[C@H](Cc1c[nH]c2ccccc12)NC(=O)[C@@H](N)Cc1c[nH]c2ccccc12)C(N)=O [WWLWWLWWL]

- MIC [1]: 6.25 µM (≈ 9.02 µg/mL)
Compound: CC(C)C[C@H](NC(=O)[C@H](Cc1c[nH]c2ccccc12)NC(=O)[C@H](Cc1c[nH]c2ccccc12)NC(=O)[C@H](CC(C)C)NC(=O)[C@H](Cc1c[nH]c2ccccc12)NC(=O)[C@H](CCCN=C(N)N)NC(=O)[C@H](CC(C)C)NC(=O)[C@H](Cc1c[nH]c2ccccc12)NC(=O)[C@@H](N)Cc1c[nH]c2ccccc12)C(N)=O [WWLRWLWWL]

- MIC [1]: 12.5 µM (≈ 16.4 µg/mL)
Compound: CC[C@H](C)[C@H](NC(=O)[C@H](Cc1c[nH]c2ccccc12)NC(=O)[C@H](CCCN=C(N)N)NC(=O)[C@H](C)NC(=O)[C@H](Cc1c[nH]c2ccccc12)NC(=O)[C@@H](N)CCCCN)C(=O)N[C@@H](CCCN=C(N)N)C(=O)N[C@@H](Cc1c[nH]c2ccccc12)C(=O)N[C@@H](CC(C)C)C(N)=O [KWARWIRWL]

- MIC [1]: 12.5 µM (≈ 17 µg/mL)
Compound: CC[C@H](C)[C@H](NC(=O)[C@H](Cc1c[nH]c2ccccc12)NC(=O)[C@H](CCCN=C(N)N)NC(=O)[C@H](CCCN=C(N)N)NC(=O)[C@H](Cc1c[nH]c2ccccc12)NC(=O)[C@@H](N)CCCCN)C(=O)N[C@@H](CCCN=C(N)N)C(=O)N[C@@H](Cc1c[nH]c2ccccc12)C(=O)N[C@@H](C)C(N)=O [KWRRWIRWA]

- MIC [9]: 2 µM (≈ 2.9 µg/mL)
- MIC [10]: 2 µM (≈ 2.9 µg/mL)
- MIC [5]: 1 µM (≈ 1.45 µg/mL)
- MIC [11]: > 512 µM
- MIC [6]: 2 µM (≈ 2.9 µg/mL)
- MIC [7]: ≥ 512 µM
Compound: CC[C@H](C)[C@H](NC(=O)[C@H](Cc1ccc(O)cc1)NC(=O)[C@H](CC(C)C)NC(=O)[C@@H](N)Cc1ccccc1)C(=O)N[C@H](C(=O)N[C@@H](C)C(=O)N[C@@H](CCCCN)C(=O)N[C@@H](CC(C)C)C(=O)N[C@@H](CC(C)C)C(=O)N[C@@H](CO)C(=O)NCC(=O)N[C@@H](CC(C)C)C(=O)N[C@@H](CC(C)C)C(N)=O)C(C)C [FLYIVAKLLSGLL]
